Results from patent publication US4543350A, “Carcinostatic agent” (Sanyo Machine Works, Ltd., priority 1982, dated 1985).
Several values for one entry are separate records, joined by “and”; a condition that tells them apart may be missing. Equal values may be shown once.

Tests used:
Water solubility = type: physicochemical
[1] = tested on: BW 5174 (thymoma of AKR mouse); test: Cytotoxicity test (51Cr release) of spleen and intraperitoneal cells of Eisenin-administered mice; type: cell-based
Description: Further, the target cell employed was BW 5174 (thymoma of AKR mouse). The spleen cells and the intraperitoneal cells were respectively divided into the adherent cells and the non-adherent cells, and cytotoxicity was examined in each case.
(1) Percent Cytotoxicity (%) in Table 3 is based on the following
(2) Measurement is made by ^51 Cr release assay. (3) Acute Toxicit

Balb/C mice = test: Acute toxicity test; type: in vivo; details: for No. of Death: 9 Balb/C mice
Colon 26 = test: Sensitivity test: inclusion of tritium thymidine, uridine and leucine into cultured Colon 26; type: cell-based; details: for Average Counts per Minute, Leucine / Counts per Minute in the Case of Leucine: leucine (protein); for Average Counts per Minute, Leucine / Counts per Minute in the Case of Leucine / Average Counts per Minute, Tritium Thymidine / Counts per Minute in the Case of Tritium Thymidine / Average Counts per Minute, Uridine / Counts per Minute in the Case of Uridine: 3 days; for Counts per Minute in the Case of Leucine / Counts per Minute in the Case of Tritium Thymidine / Counts per Minute in the Case of Uridine: single counts; for Average Counts per Minute, Tritium Thymidine / Counts per Minute in the Case of Tritium Thymidine: tritium thymidine (DNA); for Average Counts per Minute, Uridine / Counts per Minute in the Case of Uridine: uridine (RNA)
Experimental: (1) Inhibition Index (I.I.) is calculated from the following equation, an
where I.I. exceeds 75%, it is judged effective.
- (2) Measurement is made on a scintillation counter.

Sarcoma 180 = Sarcoma 180 transplanted subcutaneously to Balb/C mice: tumor weight; type: in vivo; details: Sarcoma 180 s.c. in Balb/C mice; Eisenin i.p. and orally 5 mg per animal every other day three times
Description: (§1) The animals used as experimental materials were Balb/C mice and nude mice, and the tumors used were Colon (Balb/C Colon cancer) and Sarcoma 180.

[2] = Effective dosage estimated from the various test results; type: in vivo; details: average body weight of Balb/C mice taken as 20 g
[3] = tested on: Colon 26 (Balb/C Colon cancer); test: Colon 26 transplanted subcutaneously to Balb/C mice: tumor weight and survival rate; type: in vivo; details: Colon 26 s.c. in Balb/C mice; Eisenin i.p. 5 mg per animal every other day three times
Description: as §1
a. 1,000,000 Cells of Colon 26 were transplanted subcutaneously to Balb/C mice.

With L-Pyroglu-L-Gln-L-Ala [Eisenin] the solubility in water (Water solubility) was “water soluble”, the “difference in cytotoxicity versus control group, intraperitoneal cells” value [1] was “a significant difference” and the “No. of Death” value (Balb/C mice; Eisenin 3 g/kg intraperitoneally) was 1/9. The “No. of Death” value (Balb/C mice; Eisenin 6 g/kg intraperitoneally) was 7/9, the LD50 (Balb/C mice; intraperitoneal, Balb/C mice) was roughly 5000 mg/kg and the “direct effect on tumor cells (sensitivity test; I.I. above 75% is judged effective)” value (Colon 26; Colon 26 culture, all concentrations and labels) was “no direct effect of Eisenin on tumor cells”. For the same substance, the “Average Counts per Minute, Leucine” value (Colon 26; Eisenin 0.0001 mg/ml) was 12232 CPM, the “Counts per Minute in the Case of Leucine” value (Colon 26; Eisenin 0.0001 mg/ml) was 12952 CPM and 11936 CPM and 11808 CPM and 10952 CPM and the “Average Counts per Minute, Leucine” value (Colon 26; Eisenin 0.001 mg/ml) was 13743 CPM. For the same substance, the “Counts per Minute in the Case of Leucine” value (Colon 26; Eisenin 0.001 mg/ml) was 13620 CPM and 14230 CPM and 13379 CPM and 11355 CPM, the “Average Counts per Minute, Leucine” value (Colon 26; Eisenin 0.01 mg/ml) was 11478 CPM and the “Counts per Minute in the Case of Leucine” value (Colon 26; Eisenin 0.01 mg/ml) was 12285 CPM and 11020 CPM and 12097 CPM and 11318 CPM. For the same substance, the “Average Counts per Minute, Leucine” value (Colon 26; Eisenin 0.1 mg/ml) was 11318 CPM, the “Counts per Minute in the Case of Leucine” value (Colon 26; Eisenin 0.1 mg/ml) was 13311 CPM and 12566 CPM and 8076 CPM and 7076 CPM and the “Average Counts per Minute, Leucine” value (Colon 26; Eisenin 1.0 mg/ml) was 6521 CPM. For the same substance, the “Counts per Minute in the Case of Leucine” value (Colon 26; Eisenin 1.0 mg/ml) was 6826 CPM and 6150 CPM and 6587 CPM, the “Average Counts per Minute, Tritium Thymidine” value (Colon 26; Eisenin 0.0001 mg/ml) was 229878 CPM and the “Counts per Minute in the Case of Tritium Thymidine” value (Colon 26; Eisenin 0.0001 mg/ml) was 231236 CPM and 219336 CPM and 224786 CPM and 233612 CPM. The “Average Counts per Minute, Tritium Thymidine” value (Colon 26; Eisenin 0.001 mg/ml) was 218332 CPM, the “Counts per Minute in the Case of Tritium Thymidine” value (Colon 26; Eisenin 0.001 mg/ml) was 220010 CPM and 213816 CPM and 221170 CPM and 213017 CPM and the “Average Counts per Minute, Tritium Thymidine” value (Colon 26; Eisenin 0.01 mg/ml) was 238823 CPM. The “Counts per Minute in the Case of Tritium Thymidine” value (Colon 26; Eisenin 0.01 mg/ml) was 207474 CPM and 229569 CPM and 240628 CPM and 246273 CPM, the “Average Counts per Minute, Tritium Thymidine” value (Colon 26; Eisenin 0.1 mg/ml) was 198381 CPM and the “Counts per Minute in the Case of Tritium Thymidine” value (Colon 26; Eisenin 0.1 mg/ml) was 190120 CPM and 203872 CPM and 201151 CPM and 223845 CPM. For the same substance, the “Average Counts per Minute, Tritium Thymidine” value (Colon 26; Eisenin 1.0 mg/ml) was 170297 CPM, the “Counts per Minute in the Case of Tritium Thymidine” value (Colon 26; Eisenin 1.0 mg/ml) was 140430 CPM and 171170 CPM and 163554 CPM and 176167 CPM and the “Average Counts per Minute, Uridine” value (Colon 26; Eisenin 0.0001 mg/ml) was 30793 CPM. The “Counts per Minute in the Case of Uridine” value (Colon 26; Eisenin 0.0001 mg/ml) was 32836 CPM and 29585 CPM and 24135 CPM and 29958 CPM, the “Average Counts per Minute, Uridine” value (Colon 26; Eisenin 0.001 mg/ml) was 31169 CPM and the “Counts per Minute in the Case of Uridine” value (Colon 26; Eisenin 0.001 mg/ml) was 39415 CPM and 31675 CPM and 28671 CPM and 33161 CPM. The “Average Counts per Minute, Uridine” value (Colon 26; Eisenin 0.01 mg/ml) was 33039 CPM, the “Counts per Minute in the Case of Uridine” value (Colon 26; Eisenin 0.01 mg/ml) was 37043 CPM and 33211 CPM and 31498 CPM and 34408 CPM and the “Average Counts per Minute, Uridine” value (Colon 26; Eisenin 0.1 mg/ml) was 25426 CPM. The “Counts per Minute in the Case of Uridine” value (Colon 26; Eisenin 0.1 mg/ml) was 32774 CPM and 25271 CPM and 24222 CPM and 26786 CPM, the “Average Counts per Minute, Uridine” value (Colon 26; Eisenin 1.0 mg/ml) was 21107 CPM and the “Counts per Minute in the Case of Uridine” value (Colon 26; Eisenin 1.0 mg/ml) was 27088 CPM and 20903 CPM and 19954 CPM and 22463 CPM. For the same substance, the “anti-tumor effect (weight of the tumor; FIG. 5)” value (Sarcoma 180) was “a similar anti-tumor effect is recognized”, the “effective dosage as estimated from the test results” value [2] was “about 15 mg per 20 g” and the “anti-tumor effect (weight of the tumor, survival rate; FIG. 1, FIG. 2)” value [3] was “an anti-tumor effect of Eisenin is recognized”.
